How the values were obtained:
[1] = test system: MCF-7 (breast adenocarcinoma); test: MTT cell proliferation assay, MCF-7; type: cell-based; conditions: Homo sapiens, MCF7, MCF-7, 72 h of exposition, read-out: Anti-proliferative activity IC50, MCF-7
Description: (§1) Tests to determine the effects of the synthesized compounds on cell viability and the half-maximal inhibitory concentration (IC50) were performed using the MTT assay, as described in our prior work.
(§2) The target compounds 5, 6, 8–12, 14, 15, 17–22 and 24–26 were tested for antiproliferative activity against six cancer cell lines: K562 (chronic myelogenous leukemia), HL-60 (promyelocytic leukemia), MCF-7 (breast adenocarcinoma), HepG2 (human liver cancer), A549 (lung carcinoma) and OKP-GS (renal cell carcinoma). The RPMI 1788 cells (B lymphocyte, human) were used as a control to evaluate the system toxicity of the studied compounds to normal cells. Sorafenib, nilotinib and lapatinib were utilized as reference standards for comparison.

[2] = test system: HepG2 (human liver cancer); test: MTT cell proliferation assay, HepG2; type: cell-based; conditions: Homo sapiens, HepG2, 72 h, HepG2, 72 h of exposition, read-out: Anti-proliferative activity IC50, HepG2
Description: as §1, §2

KDR (VEGFR-2) = target: T1, KDR (VEGFR-2) (Homo sapiens, UniProt P35968); test: ADP-Glo kinase assay, KDR; type: biochemical
T1 construct: purchased Promega

[3] = test system: OKP-GS (renal cell carcinoma); test: MTT cell proliferation assay, OKP-GS; type: cell-based; conditions: 72 h of exposition, read-out: Anti-proliferative activity IC50, OKP-GS
Description: as §1, §2

PDGFRβ = target: T2, PDGFRβ (Homo sapiens, UniProt P09619); test: ADP-Glo kinase assay, PDGFRβ; type: biochemical
T2 construct: purchased Promega
Description: (§3) The ADP-Glo kinase assay (Promega, Madison, WI, USA) was used to screen compounds 5, 8–10, 14, 17, 19 and 24 for the tyrosine kinase (Kinase Selectivity Profiling System TK-1, Promega, Madison, WI, USA) and serine/threonine kinase (Kinase Selectivity Profiling System Other/CK-1, Promega, Madison, WI, USA) inhibition effects according to the manufacturer’s technical manual. The luminescence data were analyzed as described in our prior work.
(§4) The selectivity of the potential kinase inhibitor against a specific protein kinase or a specific family of kinases was investigated using the Kinase Selectivity Profiling System TK-1, Other/CK-1 and ADP-Glo™ Kinase assay kit (Promega, Madison, WI, USA).

HER2 = target: T3, HER2 (Homo sapiens, UniProt P04626); test: ADP-Glo kinase assay, HER2; type: biochemical
T3 construct: purchased Promega
Description: as §3, §4

[4] = target: T4, IGF1R (insulin-like growth factor 1 receptor) (Homo sapiens, UniProt P08069); test: ADP-Glo kinase assay, IGF1R; type: biochemical
T4 construct: purchased Promega
Description: as §3, §4

[5] = test system: RPMI 1788 cells (B lymphocyte, human); test: MTT cell proliferation assay, normal RPMI 1788 cells; type: cell-based; conditions: normal human lymphoblastoid cells RPMI 1788, 72 h of exposition, read-out: Anti-proliferative activity IC50, RPMI 1788
Description: as §1, §2

InsR (insulin receptor) = target: T5, InsR (insulin receptor) (Homo sapiens, UniProt P06213); test: ADP-Glo kinase assay, InsR; type: biochemical
T5 construct: purchased Promega
Description: as §3, §4

[6] = test system: HL-60 (promyelocytic leukemia); test: MTT cell proliferation assay, HL-60; type: cell-based; conditions: Homo sapiens, HL-60, 72 h of exposition, read-out: Anti-proliferative activity IC50, HL-60
Description: as §1, §2

EGFR = target: T6, EGFR (Homo sapiens, UniProt P00533); test: ADP-Glo kinase assay, EGFR; type: biochemical
T6 construct: purchased Promega

HER4 = target: T7, HER4 (Homo sapiens, UniProt Q15303); test: ADP-Glo kinase assay, HER4; type: biochemical
T7 construct: purchased Promega
Description: as §3, §4

Aurora B = target: T8, Aurora B (Homo sapiens, UniProt Q96GD4); test: ADP-Glo kinase assay, Aurora B; type: biochemical
T8 construct: purchased Promega
Description: as §3, §4

PDGFRα = target: T9, PDGFRα (Homo sapiens, UniProt P16234); test: ADP-Glo kinase assay, PDGFRα; type: biochemical
T9 construct: purchased Promega
Description: as §3, §4

[7] = test system: K562 (chronic myelogenous leukemia); test: MTT cell proliferation assay, K562; type: cell-based; conditions: Homo sapiens, K562, 72 h of exposition, read-out: Anti-proliferative activity IC50, K562
Description: as §1, §2

Aurora A = target: T10, Aurora A (Homo sapiens, UniProt O14965); test: ADP-Glo kinase assay, Aurora A; type: biochemical
T10 construct: purchased Promega
T10 sequence (O14965 1-403): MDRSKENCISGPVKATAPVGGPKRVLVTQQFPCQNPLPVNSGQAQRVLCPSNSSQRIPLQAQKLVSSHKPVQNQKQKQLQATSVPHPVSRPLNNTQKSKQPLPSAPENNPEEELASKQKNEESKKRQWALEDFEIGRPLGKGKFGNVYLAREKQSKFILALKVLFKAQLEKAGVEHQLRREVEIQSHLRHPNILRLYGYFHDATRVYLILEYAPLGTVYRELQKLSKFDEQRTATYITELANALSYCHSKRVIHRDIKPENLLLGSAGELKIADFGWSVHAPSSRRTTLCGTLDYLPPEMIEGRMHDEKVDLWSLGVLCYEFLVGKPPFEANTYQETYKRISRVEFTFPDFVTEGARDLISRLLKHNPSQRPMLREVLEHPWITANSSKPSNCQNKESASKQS
Description: as §3, §4

A549 (lung carcinoma) = test: MTT cell proliferation assay, A549; type: cell-based; conditions: Homo sapiens, A549, 72 h of exposition, read-out: Anti-proliferative activity IC50, A549
Description: as §1, §2

T2 sequence (P09619 33-1106): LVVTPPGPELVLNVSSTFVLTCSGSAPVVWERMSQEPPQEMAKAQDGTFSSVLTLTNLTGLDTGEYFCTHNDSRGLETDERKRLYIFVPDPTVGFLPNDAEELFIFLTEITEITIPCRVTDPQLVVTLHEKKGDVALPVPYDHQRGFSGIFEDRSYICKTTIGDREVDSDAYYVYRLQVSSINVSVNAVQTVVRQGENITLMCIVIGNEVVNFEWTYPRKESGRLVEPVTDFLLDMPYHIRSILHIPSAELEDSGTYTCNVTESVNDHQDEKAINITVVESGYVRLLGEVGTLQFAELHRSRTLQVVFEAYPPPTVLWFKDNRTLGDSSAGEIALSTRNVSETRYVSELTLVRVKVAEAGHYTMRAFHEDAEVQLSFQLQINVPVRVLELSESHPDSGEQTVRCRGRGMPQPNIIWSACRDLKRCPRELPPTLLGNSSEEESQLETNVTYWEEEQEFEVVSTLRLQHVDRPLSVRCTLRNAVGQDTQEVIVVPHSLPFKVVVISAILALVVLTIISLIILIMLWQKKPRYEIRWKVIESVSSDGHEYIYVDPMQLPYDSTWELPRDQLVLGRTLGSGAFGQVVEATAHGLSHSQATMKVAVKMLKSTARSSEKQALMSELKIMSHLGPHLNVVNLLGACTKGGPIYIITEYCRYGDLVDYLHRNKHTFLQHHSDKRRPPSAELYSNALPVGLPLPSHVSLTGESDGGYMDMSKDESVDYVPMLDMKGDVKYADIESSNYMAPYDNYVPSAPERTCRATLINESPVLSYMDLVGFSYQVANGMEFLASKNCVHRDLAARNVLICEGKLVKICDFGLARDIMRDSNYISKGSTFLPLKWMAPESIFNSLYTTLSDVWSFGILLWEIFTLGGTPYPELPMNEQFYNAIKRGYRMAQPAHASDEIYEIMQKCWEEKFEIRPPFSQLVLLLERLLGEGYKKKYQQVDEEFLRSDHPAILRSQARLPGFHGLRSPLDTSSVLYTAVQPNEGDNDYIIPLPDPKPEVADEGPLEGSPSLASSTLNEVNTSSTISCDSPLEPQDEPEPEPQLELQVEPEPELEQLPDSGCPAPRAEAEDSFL
T9 sequence (P16234 24-1089): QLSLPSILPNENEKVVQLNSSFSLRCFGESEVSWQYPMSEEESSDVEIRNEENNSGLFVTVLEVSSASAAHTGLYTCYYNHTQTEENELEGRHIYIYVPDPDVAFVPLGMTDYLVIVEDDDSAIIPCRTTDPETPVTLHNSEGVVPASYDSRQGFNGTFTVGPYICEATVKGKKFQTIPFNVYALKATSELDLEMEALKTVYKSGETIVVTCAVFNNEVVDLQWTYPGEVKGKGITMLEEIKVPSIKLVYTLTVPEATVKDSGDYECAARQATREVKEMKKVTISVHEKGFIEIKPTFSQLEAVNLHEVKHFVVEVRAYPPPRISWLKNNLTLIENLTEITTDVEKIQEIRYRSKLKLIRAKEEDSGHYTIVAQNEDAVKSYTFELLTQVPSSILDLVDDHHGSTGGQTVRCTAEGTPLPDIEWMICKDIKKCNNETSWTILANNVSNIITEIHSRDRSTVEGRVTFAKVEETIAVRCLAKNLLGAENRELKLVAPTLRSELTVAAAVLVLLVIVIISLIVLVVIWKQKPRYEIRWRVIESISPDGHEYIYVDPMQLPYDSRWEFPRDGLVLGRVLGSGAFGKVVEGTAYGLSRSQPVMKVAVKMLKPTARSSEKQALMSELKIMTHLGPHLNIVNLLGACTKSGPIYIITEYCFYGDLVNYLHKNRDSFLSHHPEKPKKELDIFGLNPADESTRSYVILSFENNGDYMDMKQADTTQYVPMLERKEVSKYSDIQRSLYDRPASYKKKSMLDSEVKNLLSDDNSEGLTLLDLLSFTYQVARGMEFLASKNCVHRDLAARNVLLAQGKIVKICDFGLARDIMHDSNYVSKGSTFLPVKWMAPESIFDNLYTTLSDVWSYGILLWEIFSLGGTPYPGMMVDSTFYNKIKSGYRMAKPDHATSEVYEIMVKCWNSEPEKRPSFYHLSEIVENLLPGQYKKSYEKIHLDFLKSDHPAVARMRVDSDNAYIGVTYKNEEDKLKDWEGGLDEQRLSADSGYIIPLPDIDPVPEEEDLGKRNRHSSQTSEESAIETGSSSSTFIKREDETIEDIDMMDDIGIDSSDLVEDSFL
T7 sequence (Q15303 26-1308): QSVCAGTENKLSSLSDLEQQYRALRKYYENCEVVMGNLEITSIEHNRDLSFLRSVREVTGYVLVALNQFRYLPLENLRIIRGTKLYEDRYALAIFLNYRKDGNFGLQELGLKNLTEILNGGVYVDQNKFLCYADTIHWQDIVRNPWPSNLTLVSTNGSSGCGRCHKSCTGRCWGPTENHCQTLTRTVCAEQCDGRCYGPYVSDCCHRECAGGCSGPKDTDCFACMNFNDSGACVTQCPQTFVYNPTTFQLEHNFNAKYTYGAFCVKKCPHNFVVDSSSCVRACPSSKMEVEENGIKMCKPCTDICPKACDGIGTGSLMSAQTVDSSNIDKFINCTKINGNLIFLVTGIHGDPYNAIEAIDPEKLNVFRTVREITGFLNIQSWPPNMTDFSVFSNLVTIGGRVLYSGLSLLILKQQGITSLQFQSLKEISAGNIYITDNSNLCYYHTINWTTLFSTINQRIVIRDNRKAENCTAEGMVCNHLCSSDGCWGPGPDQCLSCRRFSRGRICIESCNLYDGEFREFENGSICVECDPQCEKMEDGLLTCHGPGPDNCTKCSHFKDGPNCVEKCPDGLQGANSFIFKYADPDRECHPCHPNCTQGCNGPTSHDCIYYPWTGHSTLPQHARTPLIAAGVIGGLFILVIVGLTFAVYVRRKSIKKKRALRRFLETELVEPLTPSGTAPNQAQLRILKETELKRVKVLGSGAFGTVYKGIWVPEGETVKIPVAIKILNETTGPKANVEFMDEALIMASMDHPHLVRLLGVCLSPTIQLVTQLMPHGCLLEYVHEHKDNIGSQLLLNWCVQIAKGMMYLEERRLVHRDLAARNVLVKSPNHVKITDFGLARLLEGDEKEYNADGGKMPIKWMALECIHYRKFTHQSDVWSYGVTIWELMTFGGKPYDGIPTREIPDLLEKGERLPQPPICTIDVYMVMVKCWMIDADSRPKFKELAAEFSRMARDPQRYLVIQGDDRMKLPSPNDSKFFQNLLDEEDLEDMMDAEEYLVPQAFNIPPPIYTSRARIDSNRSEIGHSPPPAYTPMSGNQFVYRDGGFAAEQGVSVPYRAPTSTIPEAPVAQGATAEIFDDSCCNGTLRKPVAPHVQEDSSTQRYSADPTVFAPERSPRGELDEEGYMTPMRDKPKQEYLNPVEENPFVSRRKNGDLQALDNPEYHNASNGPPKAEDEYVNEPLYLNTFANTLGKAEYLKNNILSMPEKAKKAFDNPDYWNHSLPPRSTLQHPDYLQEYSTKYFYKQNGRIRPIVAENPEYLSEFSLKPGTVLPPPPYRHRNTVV
T5 sequence (P06213 28-1382): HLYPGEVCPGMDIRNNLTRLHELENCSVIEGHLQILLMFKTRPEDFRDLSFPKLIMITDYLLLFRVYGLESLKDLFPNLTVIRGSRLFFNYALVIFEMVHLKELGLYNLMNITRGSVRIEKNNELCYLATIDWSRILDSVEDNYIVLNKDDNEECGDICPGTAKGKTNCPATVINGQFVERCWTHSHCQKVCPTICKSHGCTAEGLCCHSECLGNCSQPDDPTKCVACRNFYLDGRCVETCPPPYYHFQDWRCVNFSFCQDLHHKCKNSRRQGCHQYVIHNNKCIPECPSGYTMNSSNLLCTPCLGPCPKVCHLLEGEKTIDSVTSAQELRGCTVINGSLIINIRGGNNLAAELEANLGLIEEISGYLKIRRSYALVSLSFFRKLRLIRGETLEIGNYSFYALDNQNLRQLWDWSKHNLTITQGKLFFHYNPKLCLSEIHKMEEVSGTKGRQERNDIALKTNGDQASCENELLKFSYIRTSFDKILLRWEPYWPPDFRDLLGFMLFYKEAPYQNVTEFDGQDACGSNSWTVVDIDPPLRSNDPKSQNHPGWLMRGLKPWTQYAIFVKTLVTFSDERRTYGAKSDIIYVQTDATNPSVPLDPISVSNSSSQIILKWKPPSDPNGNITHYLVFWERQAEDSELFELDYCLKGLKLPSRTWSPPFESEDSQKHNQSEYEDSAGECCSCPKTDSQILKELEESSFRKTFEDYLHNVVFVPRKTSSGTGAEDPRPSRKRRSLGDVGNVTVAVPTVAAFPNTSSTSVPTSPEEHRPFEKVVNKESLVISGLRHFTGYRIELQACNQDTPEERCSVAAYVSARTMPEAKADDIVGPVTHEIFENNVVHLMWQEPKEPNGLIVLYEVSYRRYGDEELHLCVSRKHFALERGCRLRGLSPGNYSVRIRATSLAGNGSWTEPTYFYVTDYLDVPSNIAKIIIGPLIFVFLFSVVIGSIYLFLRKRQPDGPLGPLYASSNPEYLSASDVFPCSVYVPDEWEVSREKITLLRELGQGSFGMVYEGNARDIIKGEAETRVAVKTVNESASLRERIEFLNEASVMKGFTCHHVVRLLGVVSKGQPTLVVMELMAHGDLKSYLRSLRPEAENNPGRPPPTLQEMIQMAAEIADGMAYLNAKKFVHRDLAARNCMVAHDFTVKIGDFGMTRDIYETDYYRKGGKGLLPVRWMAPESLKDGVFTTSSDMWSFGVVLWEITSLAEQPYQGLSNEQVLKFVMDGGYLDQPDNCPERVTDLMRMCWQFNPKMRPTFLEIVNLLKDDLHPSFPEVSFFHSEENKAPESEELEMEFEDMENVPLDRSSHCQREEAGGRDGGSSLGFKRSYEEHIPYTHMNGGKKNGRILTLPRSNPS
T8 sequence (Q96GD4 whole entry): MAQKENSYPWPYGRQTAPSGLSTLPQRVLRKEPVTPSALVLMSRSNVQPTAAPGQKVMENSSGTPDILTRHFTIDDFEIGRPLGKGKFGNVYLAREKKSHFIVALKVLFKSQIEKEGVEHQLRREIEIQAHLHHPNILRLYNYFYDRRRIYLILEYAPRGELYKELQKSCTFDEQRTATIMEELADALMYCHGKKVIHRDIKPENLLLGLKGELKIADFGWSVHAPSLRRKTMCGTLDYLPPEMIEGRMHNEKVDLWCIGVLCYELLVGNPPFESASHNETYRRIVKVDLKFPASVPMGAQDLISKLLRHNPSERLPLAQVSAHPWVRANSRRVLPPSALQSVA

Structure (SMILES)	IC50 [1]	IC50 [2]	inhibition at 10 µM (KDR (VEGFR-2))	IC50 [3]	inhibition at 10 µM (PDGFRβ)	inhibition at 10 µM (HER2)	inhibition at 10 µM [4]	IC50 [5]	inhibition at 10 µM (InsR (insulin receptor))	IC50 [6]	inhibition at 10 µM (EGFR)	inhibition at 10 µM (HER4)	inhibition at 10 µM (Aurora B)	inhibition at 10 µM (PDGFRα)	IC50 [7]	inhibition at 10 µM (Aurora A)	IC50 (A549 (lung carcinoma))	melting point
Cc1cn(-c2cc(NC(=O)c3cccc(C(=O)Nc4cc(-n5cnc(C)c5)cc(C(F)(F)F)c4)c3)cc(C(F)(F)F)c2)cn1 [Compound 10, N1,N3-bis(3-(4-methyl-1H-imidazol-1-yl)-5-(trifluoromethyl)phenyl)isophthalamide]	38.5 ± 1.95 µM	23.2 ± 1.81 µM	33%	13.2 ± 1.3 µM	0%	19%	0%	13 ± 0.3 µM	0%	35.8 ± 3.19 µM	1%	0%	0%	17%	26 ± 2.38 µM	0%	> 50 µM	304 to 306 °C
Cc1cn(-c2cc(NC(=O)c3ccc(C(=O)Nc4cc([N+](=O)[O-])ccc4C)cc3)cc(C(F)(F)F)c2)cn1 [Compound 24, N1-(3-(4-methyl-1H-imidazol-1-yl)-5-(trifluoromethyl)phenyl)-N4-(2-methyl-5-nitrophenyl)terephthalamide]	15.5 ± 1.16 µM	> 50 µM	0%	> 50 µM	0%	49%	0%	36.5 ± 0.86 µM	0%	26.4 ± 3.35 µM	2%	3%	3%	0%	17 ± 0.2 µM	0%	> 50 µM	269 to 270 °C
COc1ccc(C(=O)N2CCN(C(=O)c3ccc(C(=O)Nc4cccc(C(F)(F)F)c4)cc3)CC2)cc1 [Compound 19, 4-(4-(4-Methoxybenzoyl)piperazine-1-carbonyl)-N-(3-(trifluoromethyl)phenyl)benzamide]	> 50 µM	> 50 µM	16%	> 50 µM	20%	39%	0%	> 50 µM	17%	> 50 µM	4%	2%	–	19%	> 50 µM	–	> 50 µM	202 to 205 °C
CCN(CC)CCNC(=O)c1c(C)[nH]c(/C=C2\C(=O)Nc3ccc(F)cc32)c1C [Sunit., sunitinib, reference compound]	–	–	–	–	–	–	–	–	–	–	–	–	90%	–	–	68%	–	–
O=C(Nc1cccc(C(F)(F)F)c1)c1cccc(C(=O)N2CCN(C(=O)c3cccc(F)c3)CC2)c1 [Compound 9, 3-(4-(3-Fluorobenzoyl)piperazine-1-carbonyl)-N-(3-(trifluoromethyl)phenyl)benzamide]	26.3 ± 3.71 µM	33.3 ± 3.45 µM	33%	> 50 µM	24%	64%	0%	26.3 ± 1.88 µM	0%	21.9 ± 1.59 µM	90%	37%	0%	20%	21 ± 0.59 µM	0%	> 50 µM	97 to 101 °C
O=C(Nc1cccc(C(F)(F)F)c1)c1cccc(C(=O)N2CCN(C(=O)c3ccccc3F)CC2)c1 [Compound 8, 3-(4-(2-Fluorobenzoyl)piperazine-1-carbonyl)-N-(3-(trifluoromethyl)phenyl)benzamide]	24.7 ± 5.95 µM	35.49 ± 0.34 µM	34%	> 50 µM	0%	0%	0%	24.9 ± 1.17 µM	6%	18.2 ± 1.02 µM	14%	0%	0%	0%	18.3 ± 1.15 µM	0%	> 50 µM	145 to 147 °C
